Patent US20230355647A1, “Marker for determining anti-cancer effects of mitochondrial oxidative phosphorylation pathway inhibitor” (NANJING SHIJIANG MEDICINE TECHNOLOGY CO., LTD, priority 2020, published 2023)

Assays:
[1] = system: NCI-H82-NNMT^ov tumor; assay: Subcutaneous NCI-H82-NNMT^ov tumor-bearing nude mice; format: in vivo; details: nude mice inoculated with NCI-H82-NNMT^ov; 10 mg/kg/day intraperitoneally; compared with effect on NCI-H82 tumor; FIG. 26
From the text: (§1) To verify whether cells sensitive to mitochondrial oxidative phosphorylation pathway […] still maintained the sensitivity to oxidative phosphorylation pathway inhibitors in vivo, S-Gboxin was used to test the effectiveness in tumor-bearing mice subcutaneously inoculated with sensitive cells (NCI-H82) and insensitive cells (CFPAC-1).
(§2) 5×10^6 of NCI-H82, NCI-H82-NNMT^ov (inserting the NNMT gene into NCI-H82 cell using a viral vector to overexpress NNMT protein) and CFPAC-1 tumors were subcutaneously inoculated in nude mice to establish tumor-bearing mice. Each group of tumor-bearing mice was injected intraperitoneally with the S-Gboxin (a mitochondrial oxidative phosphorylation pathway inhibition) at a dose of 10 mg/kg/day, the inhibition effect of S-Gboxin on the tumor was investigated. The mice in control group was injected intraperitoneally with solvent vehicle in the same method, and the tumor volume was calculated as follows: tumor volume=½ length×width 2. The experiment result was shown in FIG. 25, FIG. 26, and FIG. 27.

[2] = system: NCI-H82 tumor; assay: Subcutaneous NCI-H82 tumor-bearing nude mice; format: in vivo; details: nude mice inoculated with NCI-H82; 10 mg/kg/day intraperitoneally; vs solvent vehicle; FIG. 25
From the text: as §1, §2

[3] = system: mitochondrial oxidative phosphorylation pathway; assay: Oxygen consumption of NCI-H82 cell, Seahorse XFe metabolic analyzer; format: cell-based, human; details: detection within 0.5 h, compared with control group, FIG. 1 (n=3)
From the text: The oxygen was mainly consumed by mitochondrial oxidative phosphorylation pathway in the cell, thus the determination of oxygen consumption rate (OCR) of mitochondria could directly reflect the activity of mitochondrial oxidative phosphorylation pathway. The oxygen consumption of NCI-H82 cell in the presence or absence of Oligomycin A, Gboxin, S-Gboxin and IACS-010759, mitochondrial oxidative phosphorylation pathway inhibitors, was detected using Seahorse XFe metabolic analyzer in the present Example. NCI-H82 cell (ATCC, No. […] The control group in absence of mitochondrial oxidative phosphorylation pathway inhibitor was set. The detection of cell oxygen consumption was finished within 0.5 h.

[4] = system: CFPAC-1 tumor; assay: Subcutaneous CFPAC-1 tumor-bearing nude mice; format: in vivo; details: nude mice inoculated with CFPAC-1; 10 mg/kg/day intraperitoneally; vs solvent vehicle; FIG. 27
From the text: as §1, §2

[5] = system: 786-O; assay: Cell viability (CellTiter-Glo), 786-O; format: cell-based; details: Homo sapiens, 786-0; 786-O cell line, 3-4 days of culture
Procedure: (§3) Cell viability was detected using the Promega CellTiter-Glo kit, the kit reflected cell viability by directly measuring intracellular ATP content. The inhibitory effect (IC50 value) of Gboxin, a mitochondrial oxidative phosphorylation pathway inhibitor, on different tumor cell lines was tested in the Example. The name, source, and culture condition of each tumor cell line were as follows: Cell line 786-O (ATCC, No. CRL-1932) was cultured in 10% fetal bovine serum-containing RPMI1640 medium (+P/S). […] Cell viability was detected using the Promega CellTiter-Glo kit, the kit reflected cell viability by directly measuring intracellular ATP content.

[6] = system: G-401; assay: Cell viability (CellTiter-Glo), G-401; format: cell-based; details: Homo sapiens; G-401 cell line, 3-4 days of culture
Procedure: as §3, with “G-401” for “786-O”, “CRL-1441)” for “CRL-1932)”, “McCoy's 5a” for “RPMI1640”

[7] = system: NCI-H82; assay: Cell viability (CellTiter-Glo), NCI-H82; format: cell-based; details: Homo sapiens; NCI-H82 cell line, 3-4 days of culture
Procedure: as §3, with “NCI-H82” for “786-O”, “HTB-175)” for “CRL-1932)”

[8] = system: MDA-MB-453; assay: Cell viability (CellTiter-Glo), MDA-MB-453; format: cell-based; details: Homo sapiens; MDA-MB-453 cell line, 3-4 days of culture
Procedure: as §3, with “MDA-MB-453” for “786-O”, “HTB-131)” for “CRL-1932)”, “Leibovitz's L-15” for “RPMI1640”

[9] = system: CFPAC-1; assay: Cell viability (CellTiter-Glo), CFPAC-1; format: cell-based; details: Homo sapiens; CFPAC-1 cell line, 3-4 days of culture
Procedure: as §3, with “CFPAC-1” for “786-O”, “CRL-1918)” for “CRL-1932)”, “IMDM” for “RPMI1640”

[10] = system: WSU-DLCL2; assay: Cell viability (CellTiter-Glo), WSU-DLCL2; format: cell-based; details: Homo sapiens, WSUDLCL2; WSU-DLCL2 cell line, 3-4 days of culture
Procedure: as §3, with “WSU-DLCL2 (DSMZ,” for “786-O (ATCC,”, “ACC-575)” for “CRL-1932)”

[11] = system: SW48; assay: Cell viability (CellTiter-Glo), SW48; format: cell-based; details: Homo sapiens; SW48 cell line, 3-4 days of culture
Procedure: as §3, with “SW48” for “786-O”, “CCL-231)” for “CRL-1932)”, “Leibovitz's L-15” for “RPMI1640”

[12] = system: SF126; assay: Cell viability (CellTiter-Glo), SF126; format: cell-based; details: Homo sapiens, SF-126; SF126 cell line, 3-4 days of culture
Procedure: as §3, with “SF126 (JCRB,” for “786-O (ATCC,”, “IFO50286)” for “CRL-1932)”, “EMEM” for “RPMI1640”

[13] = system: brain tumors and acute myeloid leukemia; details: study published in Nature Medicine (2018); cited from earlier work
[14] = system: GB-1; assay: Cell viability (CellTiter-Glo), GB-1; format: cell-based; details: Homo sapiens; GB-1 cell line, 3-4 days of culture
Procedure: Cell viability was detected using the Promega CellTiter-Glo kit, the kit reflected cell viability by directly measuring intracellular ATP content. The inhibitory effect (IC50 value) of Gboxin, a mitochondrial oxidative phosphorylation pathway inhibitor, on different tumor cell lines was tested in the Example. The name, source, and culture condition of each tumor cell line were as follows:
Cell line GB-1 (JCRB, No. IFO50489) was cultured in 10% fetal bovine serum-containing DMEM medium (+P/S).
The above tumor cells were cultured in the relevant medium (+P/S), and incubated for 3 h, then the gradient diluted Gboxin was added, and IC50 (50% inhibiting concentration) was measured after 3-4 days of culture.
Cell viability was detected using the Promega CellTiter-Glo kit, the kit reflected cell viability by directly measuring intracellular ATP content. In this experiment, the IC50 values of Oligomycin A or IACS-010759, a mitochondrial oxidative phosphorylation pathway inhibitor, on different tumor cells was determined.
The different tumor cells were cultured in the relevant medium (+P/S) as shown in Example 2, and incubated for 3 h, then the gradient diluted Oligomycin A or IACS-010759 was added respectively, and IC50 (50% inhibiting concentration) of Oligomycin A or IACS-010759 on different tumor cells was measured after 3-4 days of culture.

Structure (SMILES)	inhibitory effect on subcutaneous tumor (tumor volume) [1]	inhibition of subcutaneous tumor (tumor volume) [2]	oxygen consumption of NCI-H82 cells ([3]; 5 μM inhibitor)	inhibitory effect on subcutaneous tumor (tumor volume) [4]	IC50 [5] [µM]	oxygen consumption of NCI-H82 cells ([3]; 1 μM inhibitor)	IC50 [6] [µM]	IC50 [7] [µM]	IC50 [8] [µM]	IC50 [9] [µM]	IC50 [10] [µM]	IC50 [11] [µM]	IC50 [12] [µM]	inhibitory effect on brain tumors and acute myeloid leukemia [13]	IC50 [14] [µM]
CC(C)[C@@H]1CC[C@@H](C)C[C@H]1OC(=O)Cn1c(-c2cccc(C(F)(F)F)c2)[n+](C)c2ccccc21.[I-] [S-Gboxin]	significantly weaker	significantly inhibit	significantly inhibit	no significant inhibitory effect	–	–	–	–	–	–	–	–	–	–	–
Cc1nc(-c2nc(-c3ccc(OC(F)(F)F)cc3)no2)nn1Cc1cccc(N2CCC(S(C)(=O)=O)CC2)c1 [IACS-010759]	–	–	–	–	> 50	significantly inhibit	1.48	0.168	< 0.01	55.7	3.56	< 0.01	> 15	excellent inhibitory effect	> 15
